Reference: US20250376469A1, “INDOLIZINE DERIVATIVES FOR TREATING TRPM3-MEDIATED DISORDERS” (Katholieke Universiteit Leuven, priority 2022, published 2025)

Biological target: T1, mouse TRPM3α2 (mTRPM3) ion channel (Mus musculus, UniProt J9SQF3)
T1 construct: expressed in transfected cells; host or cells: flip-in HEK293
Assay: TRPM3 ion channel driven Ca2+ uptake (Fluo-4 AM assay, pregnenolone sulfate stimulated)
Format: cell-based
Details: TRPM3 overexpressing flip-in HEK293 cells, channel opened with pregnenolone sulfate (PS) 50 μM, 2.4 mM Ca2+
Method: In order to monitor the inhibition of the mouse TRPM3α2 (mTRPM3) ion channel by the compounds of the invention, a cellular system making use of an mTRPM3alpha2 or hTRPM3 overexpressing cell line (flip-in HEK293) was used. The TRPM3 channel was stimulated/opened with Pregnenolone sulfate (PS) (50 μM) which results in Ca^2+ influx.
For mTRPM3, the intracellular Ca^2+ was measured with a Calcium responsive dye, Fluor-4 AM ester (Invitrogen). Cells were cultured until a confluence of 80-90%, washed with Versene (Invitrogen) and detached from the surface by a short incubation with 0.05% Trypsin (Invitrogen). The trypsination process was stopped by the addition of complete cell culture medium (DMEM, glutamax, 10% FCS, NEAA, Pen-Strep). Cells were collected and resuspended in Krebs buffer without Calcium at RT.
Prior the cell seeding (±2000 cells/well into a black, 384 well plate (Greiner)) the diluted compound was added in the assay plate, together with the PS dissolved in Krebs buffer containing Calcium. […] Directly after cell addition the plates were read on an Envision fluorescence reader (Perkin Elmer) by an Excitation of 485 nm and emission at 535 nm.
Channel inhibition was calculated compared to a non-PS stimulated control versus a condition stimulated with PS (50 μM) with vehicle. The ability of a the compounds of the invention to inhibit this activity was determined as: Percentage inhibition=[1−((RFU determined for sample with test compound present−RFU determined for sample with positive control inhibitor) divided by (RFU determined in the presence of vehicle−RFU determined for sample with positive control inhibitor))]*100.
The activities of the Example compounds […] tested are depicted in the table below. The activity ranges A, B and C refer to IC50 values in the Fluo-4 AM assay as follows: […]

T1 sequence (J9SQF3 1-1709 isoform J9SQF3-12): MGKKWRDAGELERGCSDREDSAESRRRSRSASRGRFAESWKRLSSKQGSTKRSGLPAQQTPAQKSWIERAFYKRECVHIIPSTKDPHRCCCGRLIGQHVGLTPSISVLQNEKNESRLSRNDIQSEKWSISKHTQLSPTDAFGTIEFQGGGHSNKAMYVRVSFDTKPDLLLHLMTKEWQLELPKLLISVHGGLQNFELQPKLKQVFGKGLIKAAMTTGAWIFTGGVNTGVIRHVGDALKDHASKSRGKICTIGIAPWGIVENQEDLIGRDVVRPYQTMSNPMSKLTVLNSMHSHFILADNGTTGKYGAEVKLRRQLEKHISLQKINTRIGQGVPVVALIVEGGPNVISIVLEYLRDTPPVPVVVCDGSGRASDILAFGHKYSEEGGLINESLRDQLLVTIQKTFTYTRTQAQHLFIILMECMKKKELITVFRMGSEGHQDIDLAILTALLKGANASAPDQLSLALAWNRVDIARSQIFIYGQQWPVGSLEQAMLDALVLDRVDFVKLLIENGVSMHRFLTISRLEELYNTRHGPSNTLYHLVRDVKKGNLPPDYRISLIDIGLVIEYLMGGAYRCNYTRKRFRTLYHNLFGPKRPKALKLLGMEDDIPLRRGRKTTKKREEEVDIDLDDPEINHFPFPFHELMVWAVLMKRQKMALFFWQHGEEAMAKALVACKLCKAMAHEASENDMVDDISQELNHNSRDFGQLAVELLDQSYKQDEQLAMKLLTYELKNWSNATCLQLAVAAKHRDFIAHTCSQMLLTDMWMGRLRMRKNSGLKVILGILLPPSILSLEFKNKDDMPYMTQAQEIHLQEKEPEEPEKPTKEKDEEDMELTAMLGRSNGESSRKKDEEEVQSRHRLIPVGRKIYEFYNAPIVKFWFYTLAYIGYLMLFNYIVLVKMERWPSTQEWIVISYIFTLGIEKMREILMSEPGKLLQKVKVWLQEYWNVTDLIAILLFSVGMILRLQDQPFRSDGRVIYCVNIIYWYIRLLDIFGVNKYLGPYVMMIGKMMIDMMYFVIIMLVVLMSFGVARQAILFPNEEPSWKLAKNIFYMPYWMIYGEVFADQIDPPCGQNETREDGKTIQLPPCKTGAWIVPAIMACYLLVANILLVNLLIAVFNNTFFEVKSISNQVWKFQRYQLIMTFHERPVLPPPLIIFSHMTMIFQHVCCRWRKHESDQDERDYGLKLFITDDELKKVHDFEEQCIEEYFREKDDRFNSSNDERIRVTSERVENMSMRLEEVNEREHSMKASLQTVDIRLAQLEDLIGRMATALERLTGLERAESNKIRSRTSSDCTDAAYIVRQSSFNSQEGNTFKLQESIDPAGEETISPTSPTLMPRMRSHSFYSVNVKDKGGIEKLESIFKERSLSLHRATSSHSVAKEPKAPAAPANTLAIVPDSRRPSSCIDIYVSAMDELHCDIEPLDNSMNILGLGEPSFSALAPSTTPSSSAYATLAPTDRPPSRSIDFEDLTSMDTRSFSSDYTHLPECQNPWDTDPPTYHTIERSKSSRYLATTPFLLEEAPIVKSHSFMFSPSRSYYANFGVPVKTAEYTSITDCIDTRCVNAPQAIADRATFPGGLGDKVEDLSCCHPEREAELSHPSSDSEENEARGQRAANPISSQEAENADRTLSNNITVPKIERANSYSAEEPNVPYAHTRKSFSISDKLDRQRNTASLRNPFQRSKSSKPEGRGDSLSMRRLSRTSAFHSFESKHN

SMILES | IC50 [nM]
Cc1cc2ccc(OCc3ccccn3)cn2c1C(=O)NC(C)(CO)C(N)=O (single isomer, unassigned) [Cpd 014 - En1] | < 1000
CC(=O)C(C)NC(=O)c1c(C)cc2ccc(OCC3CC3)cn12 (single isomer, unassigned) [Cpd 023 - En1] | 1000 to 20000
Cc1cc2ccc(OCc3ccccn3)cn2c1C(=O)NC1CNCCC1(F)F (single isomer, unassigned) [Cpd 017 - En2, N-(4,4-difluoropiperidin-3-yl)-2-methyl-6-[(pyridin-2-yl)methoxy]indolizine-3-carboxamide] | > 20000
Cc1cc2ccc(OCc3ccccc3)cn2c1C(=O)NC(CO)C(N)=O (single isomer, unassigned) [Cpd 034 - En1] | < 1000
COc1ncccc1COc1ccc2cc(C)c(C(=O)NC(CO)CC(F)(F)F)n2c1 (single isomer, unassigned) [Cpd 043 - En2] | > 20000
Cc1cc2ccc(OCc3cnccn3)cn2c1C(=O)NC1(CO)CCNC1=O (single isomer, unassigned) [Cpd 046 - En1] | < 1000
Cc1ncc(COc2ccc3cc(C)c(C(=O)NC(C)(CO)C(N)=O)n3c2)s1 (single isomer, unassigned) [Cpd 029 - En1, 3-hydroxy-2-methyl-2-({2-methyl-6-[(2-methyl-1,3-thiazol-5-yl)methoxy]indolizin-3-yl}formamido)propanamide] | < 1000
Cc1cc2ccc(OCc3ccccc3F)cn2c1C(=O)N[C@@H](CO)C(N)=O [Cpd 003, (2S)-2-({6-[(2-fluorophenyl)methoxy]-2-methylindolizin-3-yl}formamido)-3-hydroxypropanamide] | < 1000
Cc1cc2ccc(OCc3ccccc3F)cn2c1C(=O)N[C@@H](C)C(N)=O [Cpd 002, (2S)-2-({6-[(2-fluorophenyl)methoxy]-2-methylindolizin-3-yl}formamido)propanamide] | < 1000
Cc1cc2ccc(OCc3ccccc3F)cn2c1C(=O)NC(C)(CO)C(N)=O (single isomer, unassigned) [Cpd 005 - En1, 2-({6-[(2-fluorophenyl)methoxy]-2-methylindolizin-3-yl}formamido)-3-hydroxy-2-methylpropanamide] | < 1000
Cc1cc2ccc(OCc3ccccc3)cn2c1C(=O)NC(C)(CO)CC(F)F (single isomer, unassigned) [Cpd 035 - En1] | < 1000
Cc1cc2ccc(OCC3CC3)cn2c1C(=O)NC(C)(CO)C(N)=O (single isomer, unassigned) [Cpd 019 - En1] | < 1000
Cc1cc2ccc(OCc3c(F)cnn3C)cn2c1C(=O)NC(CO)CC(F)(F)F (single isomer, unassigned) [Cpd 045 - En2] | > 20000
Cc1cc2ccc(OCc3cccnc3C(F)(F)F)cn2c1C(=O)NC(CO)CC(F)(F)F (single isomer, unassigned) [Cpd 044 - En2] | < 1000
Cc1cc2ccc(OCC(F)F)cn2c1C(=O)NC1CNCCC1(F)F (single isomer, unassigned) [Cpd 027 - En1] | 1000 to 20000
Cc1cc2ccc(OCc3ccccn3)cn2c1C(=O)NC1(CO)CCNC1=O (single isomer, unassigned) [Cpd 016 - En2] | 1000 to 20000
Cc1cc2ccc(OCc3ccccc3F)cn2c1C(=O)NC1(CO)CCNC1=O (single isomer, unassigned) [Cpd 007 - En2] | 1000 to 20000
COCC(C)(CO)NC(=O)c1c(C)cc2ccc(OCc3ccccn3)cn12 (single isomer, unassigned) [Cpd 032 - En1] | 1000 to 20000
Cc1cc2ccc(OCc3cccnc3)cn2c1C(=O)NC1(CO)CCNC1=O (single isomer, unassigned) [Cpd 037 - En1] | < 1000
Cc1cc2ccc(OCc3c(F)cnn3C)cn2c1C(=O)NC1(CO)CCNC1=O (single isomer, unassigned) [Cpd 040 - En1] | < 1000
Cc1cc2ccc(OCc3ccccn3)cn2c1C(=O)NC(C)C(N)=O (single isomer, unassigned) [Cpd 018 - En2] | 1000 to 20000
Cc1cc2ccc(OCc3c(F)cnn3C)cn2c1C(=O)NC(CO)CC(F)(F)F (single isomer, unassigned) [Cpd 045 - En1] | 1000 to 20000
Cc1cc2ccc(OCc3ccccn3)cn2c1C(=O)NC(CO)C(N)=O (single isomer, unassigned) [Cpd 033 - En2] | < 1000
Cc1cc2ccc(OCc3ccccc3F)cn2c1C(=O)NC(C)(CO)CO [Cpd 006, N-(1,3-dihydroxy-2-methylpropan-2-yl)-6-[(2-fluorophenyl)methoxy]-2-methylindolizine-3-carboxamide] | < 1000
COc1ncccc1COc1ccc2cc(C)c(C(=O)NC3(CO)CCNC3=O)n2c1 (single isomer, unassigned) [Cpd 038 - En2] | 1000 to 20000

SMILES | IC50 [nM]
Cc1ncc(COc2ccc3cc(C)c(C(=O)NC(C)C(N)=O)n3c2)s1 (centres unmarked) [Cpd 031, 2-({2-methyl-6-[(2-methyl-1,3-thiazol-5-yl)methoxy]indolizin-3-yl}formamido)propanamide] | 1000 to 20000
Cc1cc2ccc(OCc3c(F)cnn3C)cn2c1C(=O)NC1(CO)CCNC1=O (single isomer, unassigned) [Cpd 040 - En2] | 1000 to 20000
COc1ncccc1COc1ccc2cc(C)c(C(=O)NC(CO)CC(F)(F)F)n2c1 (single isomer, unassigned) [Cpd 043 - En1] | < 1000
Cc1cc2ccc(OCc3cccnc3C(F)(F)F)cn2c1C(=O)NC1(CO)CCNC1=O (single isomer, unassigned) [Cpd 039 - En1] | < 1000
CC(=O)C(C)NC(=O)c1c(C)cc2ccc(OCC(F)F)cn12 (single isomer, unassigned) [Cpd 028 - En2] | > 20000
CC(=O)C(C)NC(=O)c1c(C)cc2ccc(OCC3CC3)cn12 (single isomer, unassigned) [Cpd 023 - En2] | 1000 to 20000
Cc1cc2ccc(OCC3CC3)cn2c1C(=O)NC1(CO)CCNC1=O (single isomer, unassigned) [Cpd 021 - En1] | < 1000
Cc1cc2ccc(OCc3ccccc3)cn2c1C(=O)NC(CO)C(N)=O (single isomer, unassigned) [Cpd 034 - En2] | < 1000
Cc1cc2ccc(OCc3ccccc3)cn2c1C(=O)NC(C)(CO)CC(F)F (single isomer, unassigned) [Cpd 035 - En2] | 1000 to 20000
CC(=O)C(C)NC(=O)c1c(C)cc2ccc(OCC(F)F)cn12 (single isomer, unassigned) [Cpd 028 - En1] | > 20000
Cc1cc2ccc(OCC(F)F)cn2c1C(=O)NC1CNCCC1(F)F (single isomer, unassigned) [Cpd 027 - En2] | > 20000
Cc1cc2ccc(OCc3ccccc3F)cn2c1C(=O)NC1(CO)CCNC1=O (single isomer, unassigned) [Cpd 007 - En1] | < 1000
Cc1cc2ccc(OCc3ccccn3)cn2c1C(=O)NC(CO)C(N)=O (single isomer, unassigned) [Cpd 033 - En1] | 1000 to 20000
Cc1cc2ccc(OCc3ccccn3)cn2c1C(=O)NC(C)(CO)CC(F)F (single isomer, unassigned) [Cpd 036 - En1] | < 1000
Cc1cc2ccc(OCC3CC3)cn2c1C(=O)NC(C)(CO)CO [Cpd 020, 6-(cyclopropylmethoxy)-N-(1,3-dihydroxy-2-methylpropan-2-yl)-2-methylindolizine-3-carboxamide] | < 1000
Cc1cc2ccc(OCc3cnccn3)cn2c1C(=O)NC1(CO)CCNC1=O (single isomer, unassigned) [Cpd 046 - En2] | > 20000
Cc1cc2ccc(OCc3cccnc3C(F)(F)F)cn2c1C(=O)NC(CO)CC(F)(F)F (single isomer, unassigned) [Cpd 044 - En1] | > 20000
COc1ncccc1COc1ccc2cc(C)c(C(=O)NC3(CO)CCNC3=O)n2c1 (single isomer, unassigned) [Cpd 038 - En1] | < 1000
Cc1cc2ccc(OCc3cccnc3C(F)(F)F)cn2c1C(=O)NC1(CO)CCNC1=O (single isomer, unassigned) [Cpd 039 - En2] | 1000 to 20000
Cc1cc2ccc(OCc3ccccn3)cn2c1C(=O)NC(C)(CO)CC(F)F (single isomer, unassigned) [Cpd 036 - En2] | 1000 to 20000
Cc1cc2ccc(OCC3CC3)cn2c1C(=O)NC1(CO)CCNC1=O (single isomer, unassigned) [Cpd 021 - En2] | 1000 to 20000
Cc1cc2ccc(OCc3cccnc3)cn2c1C(=O)NC1(CO)CCNC1=O (single isomer, unassigned) [Cpd 037 - En2] | 1000 to 20000
Cc1cc2ccc(OCc3cccnc3)cn2c1C(=O)NC(CO)CC(F)(F)F (single isomer, unassigned) [Cpd 042 - En2] | 1000 to 20000
Cc1cc2ccc(OCc3ccccn3)cn2c1C(=O)NC(C)(CO)C(N)=O (single isomer, unassigned) [Cpd 014 - En2] | 1000 to 20000
Cc1cc2ccc(OCc3ccccc3F)cn2c1C(=O)NC1CNCCC1(F)F (centres unmarked) [Cpd 008, N-(4,4-difluoropiperidin-3-yl)-6-[(2-fluorophenyl)methoxy]-2-methylindolizine-3-carboxamide] | 1000 to 20000
